Laboratory results as given in the supplement of paper PMC5908809.

Legend:
IMC-1 (IL-2 20 ng/mL) [1] = test: drug sensitivity score (DSS) (DSS units); higher = more sensitive; extreme values may be limits of the assay; details: 72 h
[2] = system: normal primary NK cells, pool 3 (3 donors) (IL-2 2.5 ng/mL); test: as above; details: 72 h
YT (IL-2 2.5 ng/mL) [3] = test: as above; details: 72 h
NK-92 (IL-2 2.5 ng/mL) [4] = test: as above; details: 72 h
SNK-6 (IL-2 2.5 ng/mL) [5] = test: as above; details: 72 h
NK-YS (IL-2 2.5 ng/mL) [6] = test: as above; details: 72 h
NKL (IL-2 2.5 ng/mL) [7] = test: as above; details: 72 h
DERL-7 (IL-2 2.5 ng/mL) [8] = test: as above; details: 72 h
[9] = system: normal primary NK cells, pool 1 (3 donors) (IL-2 2.5 ng/mL); test: as above; details: 72 h
KHYG-1 (IL-2 2.5 ng/mL) [10] = test: as above; details: 72 h
[11] = system: normal primary NK cells, pool 1 (3 donors), resting (IL-2 0 ng/mL); test: as above; details: 72 h
KAI3 (IL-2 2.5 ng/mL) [12] = test: as above; details: 72 h
[13] = system: normal primary NK cells, pool 2 (3 donors) (IL-2 2.5 ng/mL); test: as above; details: 72 h
[14] = system: normal NK cells expanded with K562-aAPC; test: percent inhibition of viability; higher = more inhibition; details: 72 h, IL-2 2.5 ng/mL
Description: (§1)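 Drug sensitivity and resistance testing on K562-aAPC-expanded normal NK cells: 5 concentrations (10-fold steps over a 10,000-fold range), 72 h at 37 °C, viability by CellTiter-Glo normalised to DMSO and benzethonium chloride controls; DSS from the fitted curve.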

IMC-1 (IL-2 20 ng/mL) [15] = test: as above; details: 72 h
[16] = system: normal primary NK cells, pool 3 (3 donors) (IL-2 2.5 ng/mL); test: as above; details: 72 h
YT (IL-2 2.5 ng/mL) [17] = test: as above; details: 72 h
NK-92 (IL-2 2.5 ng/mL) [18] = test: as above; details: 72 h
SNK-6 (IL-2 2.5 ng/mL) [19] = test: as above; details: 72 h
NK-YS (IL-2 2.5 ng/mL) [20] = test: as above; details: 72 h
NKL (IL-2 2.5 ng/mL) [21] = test: as above; details: 72 h
DERL-7 (IL-2 2.5 ng/mL) [22] = test: as above; details: 72 h
[23] = system: normal primary NK cells, pool 1 (3 donors) (IL-2 2.5 ng/mL); test: as above; details: 72 h
KHYG-1 (IL-2 2.5 ng/mL) [24] = test: as above; details: 72 h
[25] = system: normal primary NK cells, pool 1 (3 donors), resting (IL-2 0 ng/mL); test: as above; details: 72 h
KAI3 (IL-2 2.5 ng/mL) [26] = test: as above; details: 72 h
[27] = system: normal primary NK cells, pool 2 (3 donors) (IL-2 2.5 ng/mL); test: as above; details: 72 h
[28] = system: normal NK cells expanded with K562-aAPC; test: drug sensitivity score (DSS) (DSS units); higher = more sensitive; extreme values may be limits of the assay; details: 72 h; IL-2 2.5 ng/mL
Description: as §1

## Nc1nc(OCc2cc(Br)cs2)c2[nH]cnc2n1 [Lomeguatrib] (max concentration tested 10000 nM)
IMC-1 (IL-2 20 ng/mL) [1]
  drug sensitivity score: 0
[2]
  drug sensitivity score: 0
YT (IL-2 2.5 ng/mL) [3]
  drug sensitivity score: 0.19
NK-92 (IL-2 2.5 ng/mL) [4]
  drug sensitivity score: 0
SNK-6 (IL-2 2.5 ng/mL) [5]
  drug sensitivity score: 0
NK-YS (IL-2 2.5 ng/mL) [6]
  drug sensitivity score: 0.03
NKL (IL-2 2.5 ng/mL) [7]
  drug sensitivity score: 4.14
DERL-7 (IL-2 2.5 ng/mL) [8]
  drug sensitivity score: 1.33
[9]
  drug sensitivity score: 2.96
KHYG-1 (IL-2 2.5 ng/mL) [10]
  drug sensitivity score: 0
[11]
  drug sensitivity score: 0
KAI3 (IL-2 2.5 ng/mL) [12]
  drug sensitivity score: 0.96
[13]
  drug sensitivity score: 0.34
[14]; 1 nM
  percent inhibition of viability: -6.1%
[14]; 10 nM
  percent inhibition of viability: -4.35%
[14]; 100 nM
  percent inhibition of viability: -4.12%
[14]; 1000 nM
  percent inhibition of viability: -3.84%
[14]; 10000 nM
  percent inhibition of viability: 21%
IMC-1 (IL-2 20 ng/mL) [15]; 1 nM
  percent inhibition of viability: -11.5%
IMC-1 (IL-2 20 ng/mL) [15]; 10 nM
  percent inhibition of viability: -6.71%
IMC-1 (IL-2 20 ng/mL) [15]; 100 nM
  percent inhibition of viability: -6.4%
IMC-1 (IL-2 20 ng/mL) [15]; 1000 nM
  percent inhibition of viability: -6.2%
IMC-1 (IL-2 20 ng/mL) [15]; 10000 nM
  percent inhibition of viability: 8.26%
[16]; 1 nM
  percent inhibition of viability: 0.89%
[16]; 10 nM
  percent inhibition of viability: -1.05%
[16]; 100 nM
  percent inhibition of viability: 7.15%
[16]; 1000 nM
  percent inhibition of viability: 4.29%
[16]; 10000 nM
  percent inhibition of viability: 9.2%
YT (IL-2 2.5 ng/mL) [17]; 1 nM
  percent inhibition of viability: -3.67%
YT (IL-2 2.5 ng/mL) [17]; 10 nM
  percent inhibition of viability: -6.22%
YT (IL-2 2.5 ng/mL) [17]; 100 nM
  percent inhibition of viability: -3.85%
YT (IL-2 2.5 ng/mL) [17]; 1000 nM
  percent inhibition of viability: 0.11%
YT (IL-2 2.5 ng/mL) [17]; 10000 nM
  percent inhibition of viability: 14.3%
NK-92 (IL-2 2.5 ng/mL) [18]; 1 nM
  percent inhibition of viability: -11.6%
NK-92 (IL-2 2.5 ng/mL) [18]; 10 nM
  percent inhibition of viability: -17.5%
NK-92 (IL-2 2.5 ng/mL) [18]; 100 nM
  percent inhibition of viability: -5.85%
NK-92 (IL-2 2.5 ng/mL) [18]; 1000 nM
  percent inhibition of viability: -7.63%
NK-92 (IL-2 2.5 ng/mL) [18]; 10000 nM
  percent inhibition of viability: 3.77%
SNK-6 (IL-2 2.5 ng/mL) [19]; 1 nM
  percent inhibition of viability: -7.32%
SNK-6 (IL-2 2.5 ng/mL) [19]; 10 nM
  percent inhibition of viability: 6.29%
SNK-6 (IL-2 2.5 ng/mL) [19]; 100 nM
  percent inhibition of viability: -7.89%
SNK-6 (IL-2 2.5 ng/mL) [19]; 1000 nM
  percent inhibition of viability: 4%
SNK-6 (IL-2 2.5 ng/mL) [19]; 10000 nM
  percent inhibition of viability: 9.3%
NK-YS (IL-2 2.5 ng/mL) [20]; 1 nM
  percent inhibition of viability: 1.57%
NK-YS (IL-2 2.5 ng/mL) [20]; 10 nM
  percent inhibition of viability: -2.53%
NK-YS (IL-2 2.5 ng/mL) [20]; 100 nM
  percent inhibition of viability: -4.74%
NK-YS (IL-2 2.5 ng/mL) [20]; 1000 nM
  percent inhibition of viability: -3.26%
NK-YS (IL-2 2.5 ng/mL) [20]; 10000 nM
  percent inhibition of viability: 12.7%
NKL (IL-2 2.5 ng/mL) [21]; 1 nM
  percent inhibition of viability: -4.89%
NKL (IL-2 2.5 ng/mL) [21]; 10 nM
  percent inhibition of viability: -6.45%
NKL (IL-2 2.5 ng/mL) [21]; 100 nM
  percent inhibition of viability: -9.35%
NKL (IL-2 2.5 ng/mL) [21]; 1000 nM
  percent inhibition of viability: 8.52%
NKL (IL-2 2.5 ng/mL) [21]; 10000 nM
  percent inhibition of viability: 51.3%
DERL-7 (IL-2 2.5 ng/mL) [22]; 1 nM
  percent inhibition of viability: 4.42%
DERL-7 (IL-2 2.5 ng/mL) [22]; 10 nM
  percent inhibition of viability: 1.17%
DERL-7 (IL-2 2.5 ng/mL) [22]; 100 nM
  percent inhibition of viability: 2.11%
DERL-7 (IL-2 2.5 ng/mL) [22]; 1000 nM
  percent inhibition of viability: 0.21%
DERL-7 (IL-2 2.5 ng/mL) [22]; 10000 nM
  percent inhibition of viability: 29.9%
[23]; 1 nM
  percent inhibition of viability: -4.41%
[23]; 10 nM
  percent inhibition of viability: 4.97%
[23]; 100 nM
  percent inhibition of viability: 9.83%
[23]; 1000 nM
  percent inhibition of viability: 16%
[23]; 10000 nM
  percent inhibition of viability: 26.1%
KHYG-1 (IL-2 2.5 ng/mL) [24]; 1 nM
  percent inhibition of viability: 1.34%
KHYG-1 (IL-2 2.5 ng/mL) [24]; 10 nM
  percent inhibition of viability: -3.62%
KHYG-1 (IL-2 2.5 ng/mL) [24]; 100 nM
  percent inhibition of viability: -7.2%
KHYG-1 (IL-2 2.5 ng/mL) [24]; 1000 nM
  percent inhibition of viability: -3.96%
KHYG-1 (IL-2 2.5 ng/mL) [24]; 10000 nM
  percent inhibition of viability: 7.46%
[25]; 1 nM
  percent inhibition of viability: 12.8%
[25]; 10 nM
  percent inhibition of viability: 8.93%
[25]; 100 nM
  percent inhibition of viability: 18.4%
[25]; 1000 nM
  percent inhibition of viability: 19.5%
[25]; 10000 nM
  percent inhibition of viability: 20.8%
KAI3 (IL-2 2.5 ng/mL) [26]; 1 nM
  percent inhibition of viability: 3.07%
KAI3 (IL-2 2.5 ng/mL) [26]; 10 nM
  percent inhibition of viability: -2.1%
KAI3 (IL-2 2.5 ng/mL) [26]; 100 nM
  percent inhibition of viability: -3%
KAI3 (IL-2 2.5 ng/mL) [26]; 1000 nM
  percent inhibition of viability: 0.64%
KAI3 (IL-2 2.5 ng/mL) [26]; 10000 nM
  percent inhibition of viability: 24.2%
[27]; 1 nM
  percent inhibition of viability: -5.64%
[27]; 10 nM
  percent inhibition of viability: -7.78%
[27]; 100 nM
  percent inhibition of viability: 3.47%
[27]; 1000 nM
  percent inhibition of viability: 3.5%
[27]; 10000 nM
  percent inhibition of viability: 14.1%
[28]
  drug sensitivity score: 0.49
